The text below walks through data of a melting point compilation (Tetko et al.; mined from patent text by program, amines drawn as free bases though some values may be those of a salt).

SMILES strings stand for the structures.

Take `COc1cc2c(cc1C#N)[C@@H](O)[C@H](Br)C(C)(C)O2` (relative stereo): the melting point was 144 to 146 °C.

`COC(=O)C1=C(C)NC(C)=C(C(=O)OCCN2CCN(C(c3ccccc3)c3ccccc3)CC2)C1c1ccccc1Cl` (configuration not stated) showed a melting point of 81 to 83 °C. Under `COC(=O)CCCc1cc2nc(Cl)ccc2n1S(=O)(=O)c1ccc(OC(F)(F)F)cc1` stands 109 °C; under `COc1cc(F)c(C(=O)Nc2c(Cl)cncc2Cl)cc1OC1CCCC1`, 143 to 144 °C; under `CCOC(=O)N1CCC(=C2c3ccc(Cl)cc3C=Cc3cccnc32)CC1`, 155 to 156 °C. Turning to `CCCCc1nccn1Cc1c(F)cccc1Cl`, the melting point lay in the range of 106 to 108 °C. `CC(=O)CCCCC(=O)Nc1ccc(C=CC(=O)O)cc1` returned a melting point of 222 to 225 °C. Then `NC(=O)c1cccc2c1OC(CN1CC=C(c3c[nH]c4ccc(F)cc34)CC1)CO2` (configuration not stated), with 195 to 197 °C; and `O=C(O)CCCCc1ccccc1CNC(=O)C1Cc2ccccc2N1S(=O)(=O)c1ccc(-c2cccc(C(F)(F)F)c2)cc1` (configuration not stated), with 98 to 99 °C; and `Cn1ncnc1COc1nn2c(-c3ccc(F)cc3)nncc2c1-c1ccccc1F`, with 191 °C. Take `NS(=O)(=O)c1ccc(-c2oc3ccc(F)cc3c(=O)c2-c2ccccc2)cc1`: the melting point lay within 228 to 229 °C. Then `C=C(C)CC(O)(C(Nc1ccc(F)c2nc(C)ncc12)c1ccc(Cl)cc1OC)C(F)(F)F` (configuration not stated), with 110 °C; and `CC(N)CCc1ccc(C(N)=O)s1` (racemic), with 65 to 75 °C; and `N#Cc1nn(-c2c(Cl)cc(C(F)(F)F)cc2Cl)c(N)c1-c1ccoc1Cl`, with 153 °C. In turn, `O=C1COc2cc(NC(=O)C(=O)N3CCC(OCc4ccccc4)CC3)ccc2N1` returned a melting point of 232 to 236 °C. As to `CCCCc1nn(-c2ccccc2Cl)c(=O)[nH]1`, the melting point was 103 to 104 °C. Then `COc1ccc(-c2nc(N3CCOCC3)c3sc(NS(=O)(=O)c4cccc(/C=C/C(=O)NO)c4)cc3n2)cn1`, with > 300 °C; and `O=C(O)c1cn([C@@H]2C[C@@H]2F)c2cc(F)ccc2c1=O`, with 302 to 305 °C; and `Cc1ncccc1C(=O)NCC1CCN(C[C@H]2COc3ccc(Cl)cc3O2)CC1`, with 133 to 136 °C. The compound `CN(C#N)C(=O)CCCCCCCCC(=O)N(C)C#N` showed a melting point of 83.4 to 84 °C. In turn, `CC(CNC(=O)Cc1ccccc1)NCC(O)c1ccccc1` (configuration not stated) returned a melting point of 96 to 98 °C.

Compound `COc1ccccc1C(=O)ON1C(=O)CCC1=O` had a melting point of 180 to 182 °C. Under `O=CCCc1nc(-c2ccc(Cl)cc2)co1` stands 41 to 42 °C; under `O=C(N[C@H](Cc1ccc(C(F)(F)F)cc1)[C@@H](O)c1ccc(F)cc1)c1ccc(CO)c2ccccc12` (racemic), 202 to 203 °C. Then `Cc1c(Br)c(=O)c(-c2ccc(Cl)cc2)c(C)n1C`, with 264 to 266 °C.

Compound `C#CCNC(=O)c1cccc(F)c1Nc1nc(Nc2ccc3c(c2)OCCCN3C(C)=O)ncc1Cl` showed a melting point of 196 to 199 °C. `CCCCOCCOc1ccc(-c2cnc(N3CCCC3)c(/C=C(\C)C(=O)O)c2)cc1` showed a melting point of 106 to 107 °C. Turning to `Nc1c(C(=O)NC(Cc2ccc(OCc3ccccc3)cc2)C(=O)O)oc2cc(-c3ccc(Cl)cc3)ccc12` (configuration not stated), the melting point worked out at 250 °C. The compound `N#CC1=C2N(Cc3ccc(Cl)nc3)CCN2C2CCC1O2` (configuration not stated) had a melting point of 125 to 127 °C. Then `CC(C)(C)OC(=O)Cn1c(=O)n(Cc2ccccc2)c2ccccc21`, with 99 to 100 °C.

`COc1cc(C(=O)N(C)C)ccc1OCCCN1CCC(c2noc3cc(F)ccc23)CC1` yielded a melting point of 126 to 127 °C. Under `O=C1C(=O)N(CCCCl)c2ccccc21` stands 72 to 76.5 °C; under `COC(=O)COc1cc(C)ccc1C=O`, 63 to 64 °C. For `CC(=O)OCC1SC(N2CCc3ccccc32)C(OC(C)=O)C(OC(C)=O)C1OC(C)=O` (configuration not stated), the melting point was 163 to 165 °C. Under `CC(=O)Nc1ccc(S(=O)c2ccc(Br)cc2)cc1` (configuration not stated) stands 190 to 191 °C.

In the case of `CCCCC(CC(=O)O)C(=O)O` (configuration not stated), the melting point fell in the range of 82 to 83 °C.

`OC(CCc1ccccc1)C(O)CCc1ccccc1` (configuration not stated): the melting point lay in the range of 128 to 129 °C. Under `N#Cc1ccc(NC(=O)CCCC(=O)O)cc1` stands 200 to 201 °C. In turn, `Cc1ncc([N+](=O)[O-])cc1Nc1nccc(-c2ccccc2)n1` had a melting point of 133 °C. Under `CC(C)CCS(=O)(=O)NC(=O)OCc1cc(OC(C)C)nn1Cc1ccc(Cl)cc1Cl` stands 104 to 107 °C; under `NS(=O)(=O)c1ccc(S(=O)(=O)N2CCc3cccc(-c4ccc(F)cc4)c32)cc1`, 189 to 190 °C; under `COC(=O)C(CCCCCCCCCCCCC(C(=O)O)C1CC1)C1CC1` (configuration not stated), 59.4 to 60.5 °C. Then `CCc1c(O)cc(=O)[nH]c1C`, with 360 °C. Then `Nc1nc(OCC(F)(F)F)cc(C(F)(F)F)n1`, with 108 to 110 °C; and `O=[N+]([O-])c1ccc(O)cc1Br`, with 130 to 135 °C. Compound `O=C(NCC(=O)N1c2ccccc2N(Cc2ccccc2)C(=O)[C@H]2CCC[C@H]21)c1ccc(C(F)(F)F)cc1` (relative stereo) had a melting point of 218 to 220 °C. Consider `CC(=O)OC1C=CC2(C)C(=CCC3C2CCC2(C)C3CCC23OCCO3)C1` (configuration not stated), for which the melting point lay in the range of 105 to 106 °C. Under `Cc1ccc(C)n1-c1cc2[nH]c(=O)c(=O)n(CC(=O)NCc3ccccc3)c2cc1Cl` stands 244 °C. Then `O=C1c2c(O)ccc(O)c2C(=O)c2c(NCCN=Cc3ccccc3)ccc(NCCN=Cc3ccccc3)c21`, with 174 to 179 °C; and `Nc1nc(Cl)cc(NCC2(CO)COC2)n1`, with 185 to 186 °C. In turn, `Cn1nc(N2c3cccc(F)c3CC2C(=O)N2CCCCCC2)ccc1=O` (configuration not stated) had a melting point of 211 to 213 °C. Turning to `CC[C@]12CC[C@H]3[C@@H](CC(=C(Br)Br)C4=CC(=O)CC[C@@H]43)[C@@H]1CCC2=O`, the melting point lay within 149 to 153 °C. Under `CC1=C(C(=O)OC(C)C)C(c2cccc(Cl)c2)NC(=O)N1C(=O)NC(C)c1ccccc1` (configuration not stated) stands 198 to 200 °C; under `CCC(C)(C)c1ccc(OCCCCc2c(O)c(N)c3ccccc3c2C(N)=O)c(C(C)(C)CC)c1`, 93 to 96 °C. Under `COc1ccccc1-n1c(=O)[nH]c2c(C(N)=O)nc(-c3ccc4[nH]c(SC)nc4c3)nc21` stands 244 to 245 °C; under `CS(=O)(=O)Nc1cc(C(O)CNC2CCN(c3ccc(C=C4SC(=O)NC4=O)cc3F)CC2)ccc1O` (configuration not stated), > 225 °C.

`NC(=O)CCNc1ccc(OC(F)(F)F)cc1` gave a melting point of 76 °C.

`CCCCCCCCCCCCSc1ccc2c(c1)C(=O)c1c(c(Oc3ccccc3)c3ccccc3c1Oc1ccccc1)C2=O` displayed a melting point of 165 to 168 °C. Regarding `Clc1cc(CBr)c2noc(-c3ccc(Br)cc3)c2c1`, the melting point was 147 to 150 °C. Under `COc1ccc(CS(=O)(=O)c2cc(OC)c(OC)c(OC)c2)cc1` stands 95 to 97 °C; under `O=[N+]([O-])c1cc2cc(Cl)ccc2nc1Cl`, 190 °C; under `COC(=O)C(C)(C)COc1ccc(CNC(=O)C2Cc3ccccc3N2S(=O)(=O)c2ccc(-c3ccccc3C(F)(F)F)cc2)cc1` (configuration not stated), 68 to 75 °C. Under `O=C1CCCC2=C1C(c1ccc(F)c(C(F)(F)F)c1)C1=C(CCS1)N2` (single isomer, unassigned; (+)) stands > 250 °C; under `C[C@@H](Cn1ncc2ccc3c(c21)O[C@@H](CN=[N+]=[N-])CO3)NC(=O)OC(C)(C)C`, 134 to 135 °C; under `CCOC(=O)Cc1c2ccccc2n2c(-c3cccs3)nccc12`, 94 to 95 °C. For `CC(C)Cn1c(CNC(=O)OC(C)(C)C)c(-c2cccs2)c2cc(C#N)ccc2c1=O`, the melting point lay within 189 to 190 °C. For `CC1(C)CC(=O)N(C(=O)Nc2ccccc2)CC(C)(C)N1O`, the melting point fell in the range of 112 to 114 °C. Under `CCCCCCCCCC(=O)CCC(C)=O` stands 52 to 53 °C; under `CN(C)C(=O)Oc1cccc(-c2cc(=O)c3cc(N(C)C)ccc3o2)c1`, 167 to 168 °C.

`CC(=O)CC(=O)Nc1nc(C)c(C)s1` showed a melting point of 191 to 193 °C. Then `CS(=O)(=O)c1ccc(-n2nc(C(F)(F)F)cc2-c2ccc(-c3cscn3)c(Cl)c2)cc1`, with 128 to 130 °C; and `CCc1cccc(C)c1CNc1cc(C(=O)N2CCCC2)cc2c1nc(C)n2C`, with 126 °C. Consider `CCOP(=O)(Cc1ccc(C2=NCCO2)cc1)OCC`, for which the melting point was determined as 65 °C.

`COc1ccc(-c2nnc3c4ccccc4c(OC4CCNC4=O)nn23)cc1` (configuration not stated) yielded a melting point of 290 to 293 °C. Then `ON=Cc1cc(Br)ccc1Cl`, with 126 to 128 °C; and `CN1C(=O)C(NC(=O)Nc2ccccc2)N(C)C1=O` (configuration not stated), with 188 to 189 °C; and `Nc1nc(N)c2nc(CNc3ccc(Cl)cc3)cnc2n1`, with > 360 °C. Under `CC(=C(c1ccccc1)c1ccccc1)P(c1ccccc1)c1ccccc1` stands 128 to 130 °C. Then `CN1C(=O)C(NC(=O)c2cc3ccccc3[nH]2)C(=O)N(c2ccccc2)c2cc(Cl)ccc21` (configuration not stated), with 280 °C; and `NC(=O)c1ccc(-c2cnc3c(c2)N(Cc2ccccc2)C(=O)CN3)cc1`, with > 200 °C.

With `Cn1nc(-c2cccs2)c(N)c1N`, the melting point was 154 to 155 °C. `CCOC(=O)c1c(C(F)(F)F)nc(OCC)c(C(N)=O)c1OCC`: the melting point lay in the range of 103 to 105 °C. Under `Cc1cc(-c2c3c(cc4ccc(O)cc24)-c2ccc(O)cc2CO3)ccc1F` stands 185 to 188 °C; under `O=c1[nH]c(=O)n(C2OC(CO)CC2O)cc1F` (configuration not stated), 169 to 171 °C; under `CC(C)N1CCc2ccc(NC(=N)c3cccs3)cc2C1`, 110 to 111 °C. Under `CCOC(=O)c1[nH]c2ccc(C(O)(C(F)(F)F)C(F)(F)F)cc2c1-c1ccccc1` stands 185 to 193 °C; under `CCCn1nnn(-c2cc(OS(C)(=O)=O)c(Cl)cc2Cl)c1=O`, 64 to 65 °C.
